Values of other authors, collected in US20050147620A1, “Cinnamon formulation for reducing cholesterol and/or glucose levels” (priority 2004, published 2005).

Key:
[1] = ingestion of 20 to 30 g per day for several days

## O=C(O)CCCCC1CCSS1 (stereo not drawn) [lipoic acid, α-lipoic acid]
other
  pKa: 4.7

## CN(CC(=O)O)C(=N)N.O [creatine monohydrate]
[1]
  increase in human skeletal muscle total creatine content: greater than 20%
